The nature of the data set: Solubility. It is filed as physicochemical.
The mark [1] stands for this setting: Benzene, hexane and ether, crystals of Example 1.
Setting [2] is: Benzene, hexane and ether, crystals of Example 2 (pure).
The mark [3] stands for this setting: Chloroform, ethyl acetate, methanol and acetone, crystals of Example 1.
Where [4] appears, read: Chloroform, ethyl acetate, methanol and acetone, crystals of Example 2 (pure).
Setting [5] is: water, crystals of Example 2 (pure).

SMILES strings stand for the structures.

Take `CCCC/C=C/C=C/C=C/C=NN=NO` [FR-900184]: the Solubility result is “Sparingly soluble” under setting [1]; “Sparingly soluble” under setting [2]; “Soluble” under setting [3]; “Soluble” under setting [4]; “Insoluble” (water, crystals of Example 1); “Insoluble” under setting [5].
Take `CCC/C=C/C/C=C/C=C/C=NN=NO` [FR-900190]: the Solubility entry under setting [1] was “Sparingly soluble”; the Solubility entry under setting [2] is listed as “Sparingly soluble”; the Solubility result under setting [3] is reported as “Soluble”; the Solubility entry under setting [4] was “Soluble”; the Solubility entry (water, crystals of Example 1) is reported as “Insoluble”; the Solubility entry under setting [5] is listed as “Insoluble”.

The record behind these values is patent US4297096A, “Alkyl, alkenyl, and aryl substituted triazene compounds, their salts and production thereof” (Fujisawa Pharmaceutical Co. Ltd., priority 1980, dated 1981).
